Measured values as given in patent US12295936B2, “Immunomodulating urea azalides” (Zoetis Services LLC, priority 2020, dated 2025).

Experiments:
P. multocida 46572 = assay: In vivo mouse lung infection challenge model (murine efficacy); set-up: species or system CD-1 female mice; settings: 20 mg/kg subcutaneous, P. multocida challenge; harmonized against the comparative vehicle survival rate
Description: The challenge organism was P. multocida 46572. Target challenge concentration was 5×10^2 CFU/mouse. Isolated colonies from overnight growth (37° C. with 5% CO2) on trypticase soy agar (TSA II) blood plates were transferred to room temperature Brain Heart Infusion Broth (BHIB). The broth culture was incubated 3.5-4 hours to approximately mid-log phase of growth, as measured by forward light scatter at 600 nm (OD600, 0.200). The culture was centrifuged to collect the bacterial pellet. The pellet was re-suspended in BHIB and adjusted to provide an approximate concentration of 2.7 log^10 colony forming units (CFU) in 0.04 mL at the highest concentration. The challenge inoculum concentration was confirmed by serial dilutions of the inoculum for CFU enumeration. On Day −5, CD-1 female mice were received. Mice were given standard rodent diet and water ad libitum. On Day 0, bacterial inoculum (0.04 mL) was administered to each mouse (n=36) intranasally. Compounds of the invention were dosed at 20 mg/kg (0.1 mL) in a buffered (˜pH 5.4) propylene glycol, monothioglycerol and water solution by subcutaneous injection. Animals were observed from Days 1-10. The study was terminated on Day 10. In addition, some treatment groups were sampled at 6, 24, and 48 hours post bacterial challenge for RNA sequence analysis of lung tissue.
The murine efficacy model (P. multocida challenge) was optimized, and the treatment group size was powered to be able to observe statistically significant improvement of survival to expected ranges for immunomodulatory compounds. The experimental design was a randomized complete block design. Mice were individually identified and treatment groups comingled within a cage, with every treatment group equally represented across cages. Mortality was the primary variable. Mortality data was analyzed using a generalized mixed model with fixed effect of treatment and random effect of block. Survival time was also analyzed using the SAS PHREG (survival analysis) procedure to examine whether there were significant differences between treatment groups and the control group. Numerous compounds of the invention and M9 (positive control) were tested in this model at a dose of 20 mg/kg. Typical percent survival for no treatment control is in the range of 0-20% based on study to study variation in challenge inoculum and rate of infection. […] Mouse survival for M9 was about 90-100%, further supporting its antibacterial properties against the bacterial strain (Table 3). Survival values presented are harmonized against the comparative vehicle survival rate.

[1] = test system: BRD pathogens, M. haemolytica and P. multocida; assay: MIC screening panel of BRD pathogens (antibacterial / non-antibacterial); settings: read-out: antibacterial / non-antibacterial (MIC for the BRD pathogens)
TNF-α = assay: LPS-stimulated whole bovine blood assay, MSD cytokine detection; format: cell-based; settings: Bos taurus, LPS-stimulated bovine whole blood; read-out: TNF-α (IC50 μM)
IL-1β = assay: as above; format: cell-based; settings: overstimulation of IL-1β, LPS-stimulated bovine whole blood
IL-6 = assay: as above; format: cell-based; settings: Bos taurus, LPS-stimulated bovine whole blood; read-out: IL-6 (IC50 μM)
Description: In order to correlate RNA sequencing data to cytokine changes the whole blood assay was utilized. […] The enhancement result represents an overall stimulation of cytokine levels due to cellular stress or potential toxicity with increasing concentrations of the compound, representing a typical bell shape response curve for immunomodulatory activity.

SMILES | Mouse Murine Percent Survival (P. multocida 46572) [%] | MIC [1] [µg/mL] | IC50 (TNF-α) [µM] | IL-1β OS of LPS (IL-1β) [µM] | IC50 (IL-6) [µM]
CCCNC[C@]1(O)[C@H](C)O[C@@H](O[C@H]2[C@H](C)[C@@H](O[C@@H]3O[C@H](C)C[C@H](N(C)C(N)=O)[C@H]3O)[C@](C)(O)C[C@@H](C)CN[C@H](C)[C@@H](O)[C@](C)(O)[C@@H](CC)OC(=O)[C@@H]2C)C[C@@]1(C)OC [Example H-96, 1-((2S,3R,4S,6R)-2-(((2R,3S,4R,5R,8R,10R,11R,12S,13S,14R)-2-ethyl-3,4,10-trihydroxy-13-(((2R,4R,5S,6S)-5-hydroxy-4-methoxy-4,6-dimethyl-5-((propylamino)methyl)tetrahydro-2H-pyran-2-yl)oxy)-3,5,8,10,12,14-hexamethyl-15-oxo-1-oxa-6-azacyclopentadecan-11-yl)oxy)-3-hydroxy-6-methyltetrahydro-2H-pyran-4-yl)-1-methylurea] | 11 | > 64 |  |  | 
CC[C@H]1OC(=O)[C@H](C)[C@@H](O[C@H]2C[C@@](C)(OC)[C@@H](O)[C@H](C)O2)[C@H](C)[C@@H](O[C@@H]2O[C@H](C)C[C@H](N(C)C(=O)N(C)c3ccccc3)[C@H]2O)[C@](C)(O)C[C@@H](C)CN(C)[C@H](C)[C@@H](O)[C@]1(C)O [Example B-5, 1-((2S,3R,4S,6R)-2-(((2R,3S,4R,5R,8R,10R,11R,12S,13S,14R)-2-ethyl-3,4,10-trihydroxy-13-(((2R,4R,5S,6S)-5-hydroxy-4-methoxy-4,6-dimethyltetrahydro-2H-pyran-2-yl)oxy)-3,5,6,8,10,12,14-heptamethyl-15-oxo-1-oxa-6-azacyclopentadecan-11-yl)oxy)-3-hydroxy-6-methyltetrahydro-2H-pyran-4-yl)-1,3-dimethyl-3-phenylurea] | <1 |  |  |  | 
CCCNC[C@]1(O)[C@H](C)O[C@@H](O[C@H]2[C@H](C)[C@@H](O[C@@H]3O[C@H](C)C[C@H](N(C)C(=O)N(c4ccccc4)C4CC4)[C@H]3O)[C@](C)(O)C[C@@H](C)CN[C@H](C)[C@@H](O)[C@](C)(O)[C@@H](CC)OC(=O)[C@@H]2C)C[C@@]1(C)OC [Example H-14, 1-cyclopropyl-3-((2S,3R,4S,6R)-2-(((2R,3S,4R,5R,8R,10R,11R,12S,13S,14R)-2-ethyl-3,4,10-trihydroxy-13-(((2R,4R,5S,6S)-5-hydroxy-4-methoxy-4,6-dimethyl-5-((propylamino)methyl)tetrahydro-2H-pyran-2-yl)oxy)-3,5,8,10,12,14-hexamethyl-15-oxo-1-oxa-6-azacyclopentadecan-11-yl)oxy)-3-hydroxy-6-methyltetrahydro-2H-pyran-4-yl)-3-methyl-1-phenylurea] | 46 | > 64 |  |  | 
CC[C@H]1OC(=O)[C@H](C)[C@@H](O[C@H]2C[C@@](C)(OC)[C@](O)(CN3CCC(c4ccccc4)CC3)[C@H](C)O2)[C@H](C)[C@@H](O[C@@H]2O[C@H](C)C[C@H](N(C)C(=O)N(C)c3ccccc3)[C@H]2O)[C@](C)(O)C[C@@H](C)CN[C@H](C)[C@@H](O)[C@]1(C)O [Example J-20, 1-((2S,3R,4S,6R)-2-(((2R,3S,4R,5R,8R,10R,11R,12S,13S,14R)-2-ethyl-3,4,10-trihydroxy-13-(((2R,4R,5S,6S)-5-hydroxy-4-methoxy-4,6-dimethyl-5-((4-phenylpiperidin-1-yl)methyl)tetrahydro-2H-pyran-2-yl)oxy)-3,5,8,10,12,14-hexamethyl-15-oxo-1-oxa-6-azacyclopentadecan-11-yl)oxy)-3-hydroxy-6-methyltetrahydro-2H-pyran-4-yl)-1,3-dimethyl-3-phenylurea] |  | > 64 | 7 | 3 | 9
CC[C@H]1OC(=O)[C@H](C)[C@@H](O[C@H]2C[C@@](C)(OC)[C@@H](O)[C@H](C)O2)[C@H](C)[C@@H](O[C@@H]2O[C@H](C)C[C@H](N(C)C(=O)Nc3ccc(F)cc3)[C@H]2O)[C@](C)(O)C[C@@H](C)CN(C)[C@H](C)[C@@H](O)[C@]1(C)O [Example B-9, 1-((2S,3R,4S,6R)-2-(((2R,3S,4R,5R,8R,10R,11R,12S,13S,14R)-2-ethyl-3,4,10-trihydroxy-13-(((2R,4R,5S,6S)-5-hydroxy-4-methoxy-4,6-dimethyltetrahydro-2H-pyran-2-yl)oxy)-3,5,6,8,10,12,14-heptamethyl-15-oxo-1-oxa-6-azacyclopentadecan-11-yl)oxy)-3-hydroxy-6-methyltetrahydro-2H-pyran-4-yl)-3-(4-fluorophenyl)-1-methylurea] |  | > 64 | 107 | 28 | 116
CC[C@H]1OC(=O)[C@H](C)[C@@H](O[C@H]2C[C@@](C)(OC)[C@](O)(CN=[N+]=[N-])[C@H](C)O2)[C@H](C)[C@@H](O[C@@H]2O[C@H](C)C[C@H](N(C)C(=O)N(C)c3ccccc3)[C@H]2O)[C@](C)(O)C[C@@H](C)CN[C@H](C)[C@@H](O)[C@]1(C)O [Example F-2, 1-((2S,3R,4S,6R)-2-(((2R,3S,4R,5R,8R,10R,11R,12S,13S,14R)-13-(((2R,4R,5S,6S)-5-(azidomethyl)-5-hydroxy-4-methoxy-4,6-dimethyltetrahydro-2H-pyran-2-yl)oxy)-2-ethyl-3,4,10-trihydroxy-3,5,8,10,12,14-hexamethyl-15-oxo-1-oxa-6-azacyclopentadecan-11-yl)oxy)-3-hydroxy-6-methyltetrahydro-2H-pyran-4-yl)-1,3-dimethyl-3-phenylurea] |  | > 64 | 11 | 40 | 30
CC[C@H]1OC(=O)[C@H](C)[C@@H](O[C@H]2C[C@@](C)(OC)[C@](O)(CN(C)C3CCC3)[C@H](C)O2)[C@H](C)[C@@H](O[C@@H]2O[C@H](C)C[C@H](N(C)C(=O)N(C)c3ccccc3)[C@H]2O)[C@](C)(O)C[C@@H](C)CN[C@H](C)[C@@H](O)[C@]1(C)O [Example H-37, 1-((2S,3R,4S,6R)-2-(((2R,3S,4R,5R,8R,10R,11R,12S,13S,14R)-13-(((2R,4R,5S,6S)-5-((cyclobutyl(methyl)amino)methyl)-5-hydroxy-4-methoxy-4,6-dimethyltetrahydro-2H-pyran-2-yl)oxy)-2-ethyl-3,4,10-trihydroxy-3,5,8,10,12,14-hexamethyl-15-oxo-1-oxa-6-azacyclopentadecan-11-yl)oxy)-3-hydroxy-6-methyltetrahydro-2H-pyran-4-yl)-1,3-dimethyl-3-phenylurea] |  | > 64 | 8 | 40 | 12
CC[C@H]1OC(=O)[C@H](C)[C@@H](O)[C@H](C)[C@@H](O[C@@H]2O[C@H](C)C[C@H](N(C)C(=O)Nc3ccc(OC)cc3)[C@H]2O)[C@](C)(O)C[C@@H](C)CN[C@H](C)[C@@H](O)[C@]1(C)O [Example A-22, 1-((2S,3R,4S,6R)-2-(((2R,3S,4R,5R,8R,10R,11R,12S,13S,14R)-2-ethyl-3,4,10,13-tetrahydroxy-3,5,8,10,12,14-hexamethyl-15-oxo-1-oxa-6-azacyclopentadecan-11-yl)oxy)-3-hydroxy-6-methyltetrahydro-2H-pyran-4-yl)-3-(4-methoxyphenyl)-1-methylurea] |  | > 64 | > 250 | 100 | 246
CC[C@H]1OC(=O)[C@H](C)[C@@H](O[C@H]2C[C@@](C)(OC)[C@](O)(Cn3ccnc3)[C@H](C)O2)[C@H](C)[C@@H](O[C@@H]2O[C@H](C)C[C@H](N(C)C(=O)N(C)c3ccccc3)[C@H]2O)[C@](C)(O)C[C@@H](C)CN[C@H](C)[C@@H](O)[C@]1(C)O [Example J-24, 1-((2S,3R,4S,6R)-2-(((2R,3S,4R,5R,8R,10R,11R,12S,13S,14R)-13-(((2R,4R,5S,6S)-5-((1H-imidazol-1-yl)methyl)-5-hydroxy-4-methoxy-4,6-dimethyltetrahydro-2H-pyran-2-yl)oxy)-2-ethyl-3,4,10-trihydroxy-3,5,8,10,12,14-hexamethyl-15-oxo-1-oxa-6-azacyclopentadecan-11-yl)oxy)-3-hydroxy-6-methyltetrahydro-2H-pyran-4-yl)-1,3-dimethyl-3-phenylurea] |  | > 64 | 31 | 100 | 99
